Measurements: doi:10.1101/2021.12.22.473926v1 (biorxiv, 2021)

Molecular target: cruzain (Trypanosoma cruzi, UniProt P25779)
Assay: fluorimetric Z-FR-AMC cleavage, initial rates
Assay type: biochemical

Chain of cruzain (P25779 123-337): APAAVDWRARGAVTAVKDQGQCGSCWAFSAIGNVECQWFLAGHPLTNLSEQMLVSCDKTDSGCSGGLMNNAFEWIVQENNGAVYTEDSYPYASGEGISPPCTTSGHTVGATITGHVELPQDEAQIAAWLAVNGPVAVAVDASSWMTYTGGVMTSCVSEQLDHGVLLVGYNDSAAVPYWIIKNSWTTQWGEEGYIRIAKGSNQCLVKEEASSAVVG

IC50: 29.7 ± 9.16 nM
Structure (SMILES): CC(C)C[C@H](NC(=O)[C@H]1O[C@@H]1C(=O)O)C(=O)NCCCCN=C(N)N [E-64, trans-Epoxysuccinyl-L-leucylamido(4-guanidino)butane, reference compound]
